Reference: the supplement of paper PMC10307832

Key:
Assay in all cases: relative viability (nuclei count vs DMSO), 5 days (fraction); higher = more cells survive
[1] = compound: C1CC1C(=O)NC2=NNC3=C2C=CC(=C3)C4=CC(=CC=C4)C(=O)NC5CC5 [XMD13-2] + Cc1nc(NC(=O)N2CCC[C@H]2C(N)=O)sc1-c1ccnc(C(C)(C)C(F)(F)F)c1 [Alpelisib] (partner 2 µM)
How it was run: (§1)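 Values are medians from duplicate plates. Each reflects relative viability, defined as the nuclei count of treated wells over that of vehicle wells. Lung cancer cell lines in 1536-well plates were pin-tool dosed one day after seeding with one drug alone or with a fixed anchor-drug dose plus five library-drug doses (not always all listed) in √10 steps, then fixed, stained and imaged at 4× after 5 days.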

[2] = compound: Cc1nc(Nc2ncc(C(=O)Nc3c(C)cccc3Cl)s2)cc(N2CCN(CCO)CC2)n1 [Dasatinib] + C[C@@H](Oc1cc(-c2cnn(C3CCNCC3)c2)cnc1N)c1c(Cl)ccc(F)c1Cl [Crizotinib] (partner 1 µM)
How it was run: as §1

[3] = compound: Cc1ccc(C(=O)Nc2cccc(C(F)(F)F)c2)cc1Nc1cncc(C(N)=O)c1 [ALW-II-49-7] + CS(=O)(=O)CCNCc1ccc(-c2ccc3ncnc(Nc4ccc(OCc5cccc(F)c5)c(Cl)c4)c3c2)o1 [Lapatinib] (partner 2 µM)
How it was run: as §1

[4] = compound: C1CC1C(=O)NC2=NNC3=C2C=CC(=C3)C4=CC(=CC=C4)C(=O)NC5CC5 [XMD13-2] + N=C(N)NC(=N)NCCc1ccccc1 [Phenformin] (partner 250 µM)
How it was run: as §1

Row | Cell Line | relative viability ([1]; first compound 0.05 µM) | relative viability ([1]; first compound 0.1581 µM) | relative viability ([1]; first compound 0.5 µM) | relative viability ([1]; first compound 1.581 µM) | relative viability ([1]; first compound 5 µM) | relative viability ([2]; first compound 0.005 µM) | relative viability ([2]; first compound 0.01581 µM) | relative viability ([2]; first compound 0.05 µM) | relative viability ([2]; first compound 0.1581 µM) | relative viability ([2]; first compound 0.5 µM) | relative viability ([3]; first compound 0.08 µM) | relative viability ([3]; first compound 0.253 µM) | relative viability ([3]; first compound 0.8 µM) | relative viability ([3]; first compound 2.53 µM) | relative viability ([3]; first compound 8 µM) | relative viability ([4]; first compound 0.05 µM) | relative viability ([4]; first compound 0.1581 µM) | relative viability ([4]; first compound 0.5 µM) | relative viability ([4]; first compound 1.581 µM) | relative viability ([4]; first compound 5 µM)
1 | NCI-H1993 | 0.666 | 0.663 | 0.694 | 0.763 | 0.642 | 0.881 | 0.658 | 0.579 | 0.501 | 0.465 | 0.663 | 0.811 | 0.863 | 0.825 | 0.695 | 0.456 | 0.493 | 0.55 | 0.553 | 0.566
2 | LOU-NH91 | 0.783 | 0.759 | 0.72 | 0.659 | 0.796 | 0.777 | 0.658 | 0.691 | 0.498 | 0.354 | 0.738 | 0.809 | 0.742 | 0.589 | 0.699 | 0.83 | 0.663 | 0.732 | 0.582 | 0.867
3 | SW 900 | – | – | – | – | – | – | – | – | – | – | – | – | – | – | – | 0.696 | 0.621 | 0.682 | 0.49 | 0.781
4 | LCLC-103H | 0.91 | 0.979 | 0.981 | 0.959 | 0.851 | 0.992 | 1.05 | 0.968 | 0.734 | 0.488 | – | – | – | – | – | 0.397 | 0.357 | 0.357 | 0.326 | 0.343
5 | NCI-H1915 | 1.1 | 1.08 | 1.04 | 1.05 | 1.06 | 0.828 | 0.764 | 0.638 | 0.284 | 0.24 | 0.949 | 1.01 | 0.914 | 0.848 | 0.644 | 0.381 | 0.362 | 0.367 | 0.371 | 0.379
6 | IA-LM | 0.86 | 0.962 | 0.766 | 0.767 | 0.901 | 1.05 | 1.06 | 1.45 | 0.674 | 0.442 | 0.83 | 0.906 | 0.645 | 0.152 | 0.169 | – | – | – | – | –
7 | NCI-H1734 | 0.887 | 0.577 | 0.662 | 0.576 | 0.565 | 0.553 | 0.485 | 0.515 | 0.301 | 0.35 | 1.07 | 1.07 | 1.05 | 1.04 | 0.898 | 0.463 | 0.354 | 0.391 | 0.386 | 0.363
8 | SK-MES-1 | 0.935 | 0.922 | 0.869 | 0.876 | 1.04 | 0.968 | 0.937 | 0.93 | 0.372 | 0.212 | 0.481 | 0.458 | 0.477 | 0.487 | 0.474 | 0.699 | 0.657 | 0.696 | 0.598 | 0.644
9 | Calu-6 | 1.02 | 0.948 | 1.04 | 0.923 | 0.757 | 0.701 | 0.618 | 0.519 | 0.341 | 0.344 | 0.896 | 1.08 | 1.02 | 1.59 | 1.02 | – | – | – | – | –
10 | HCC-15 | 0.91 | 0.811 | 0.911 | 0.878 | 0.619 | 0.873 | 0.699 | 0.743 | 0.514 | 0.489 | 0.811 | 0.818 | 0.793 | 0.815 | 0.764 | 0.609 | 0.523 | 0.546 | 0.456 | 0.407
11 | SK-LU-1 | 1.3 | 1.09 | 1.27 | 0.945 | 0.6 | 0.558 | 0.417 | 0.35 | 0.251 | 0.251 | 0.738 | 0.984 | 0.774 | – | 0.607 | 0.609 | 0.528 | 0.594 | 0.592 | 0.525
12 | NCI-H2023 | 0.661 | 0.618 | 0.52 | 0.53 | 0.617 | 0.491 | 0.492 | 0.376 | 0.281 | 0.26 | 0.801 | 0.6 | 0.866 | 0.743 | 0.58 | 0.561 | 0.434 | 0.399 | 0.428 | 0.426
13 | NCI-H1650 | – | – | – | – | – | 0.801 | 0.619 | 0.456 | 0.303 | 0.239 | 0.955 | 0.846 | 0.854 | 1.04 | 0.753 | 0.634 | 0.476 | 0.552 | 0.432 | 0.558
14 | NCI-H1395 | 1.3 | 1.07 | 0.976 | 0.984 | 1.1 | – | – | – | – | – | 0.869 | 1.21 | 1.05 | 0.967 | 0.929 | 0.449 | 0.446 | 0.435 | 0.429 | 0.45
15 | NCI-H2342 | – | – | – | – | – | – | – | – | – | – | – | – | – | – | – | 0.567 | 0.602 | 0.597 | 0.642 | 0.651
16 | NCI-H1793 | 0.797 | 0.835 | 0.686 | 0.732 | 0.897 | – | – | – | – | – | 0.811 | 0.708 | 0.796 | 0.787 | 0.988 | 0.436 | – | 0.409 | 0.393 | 0.36
17 | NCI-H1299 | 1.08 | 1.08 | 1.09 | 1.08 | 1.09 | 0.966 | 0.975 | 0.779 | 0.274 | 0.256 | 0.986 | 1.06 | 0.916 | 0.839 | 0.763 | – | – | – | – | –
18 | NCI-H522 | – | – | – | – | – | – | – | – | – | – | – | – | – | – | – | 0.732 | 0.656 | 0.708 | 0.616 | 0.602
19 | NCI-H1623 | – | – | – | – | – | – | – | – | – | – | – | – | – | – | – | 0.52 | 0.564 | 0.582 | 0.554 | 0.61
20 | NCI-H1703 | 0.356 | 0.405 | 0.292 | 0.279 | 0.406 | 0.652 | 0.18 | 0.203 | 0.154 | 0.108 | 1.17 | 1.14 | 0.906 | 0.448 | 0.363 | – | – | – | – | –
21 | ChaGo-K-1 | – | – | – | – | – | 1.14 | 1.02 | 1 | 0.862 | 0.734 | – | – | – | – | – | 0.549 | 0.416 | 0.507 | 0.489 | 0.474
